Measurements as given in US20100298141A1, “SUBSTITUTED PYRIDINE N-OXIDE HERBICIDES” (E. I. DU PONT DE NEMOURS AND COMPANY, priority 2007, published 2010).

Experiments:
broadleaf signalgrass = experiment: Test G preemergence test; format: in vivo, Brachiaria platyphylla; settings: scale 0 to 100
spring wheat = experiment: Test D preemergence test; format: in vivo, Triticum aestivum; settings: scale 0 to 100
Summary of the method: (§1)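 Seeds were sown and sprayed preemergence with test chemicals formulated in a non-phytotoxic solvent mixture containing a surfactant. A dash marks no test result.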

winter wheat = experiment: Test D preemergence test; format: in vivo, Triticum aestivum; settings: scale 0 to 100
Summary of the method: as §1

itchgrass = experiment: Test G preemergence test; format: in vivo, Rottboellia cochinchinensis; settings: scale 0 to 100
annual bluegrass = experiment: Test D preemergence test; format: in vivo, Poa annua; settings: scale 0 to 100
Summary of the method: as §1

rice = experiment: Test B flooded paddy test; format: in vivo, Oryza sativa; settings: Flood, 250 g ai/ha, 13 to 15 days; scale 0 to 100, 0 no effect, 100 complete control
Source text: (§2) At time of treatment, test pots were flooded to 3 cm above the soil surface, treated by application of test compounds directly to the paddy water, and then maintained at that water depth for the duration of the test. Treated plants and controls were maintained in a greenhouse for 13 to 15 days, after which time all species were compared to controls and visually evaluated. […] A dash (-) response means no test result.

blackgrass = experiment: Test D preemergence test; format: in vivo, Alopecurus myosuroides; settings: scale 0 to 100
Summary of the method: as §1

cotton = experiment: Test G preemergence test; format: in vivo, Gossypium hirsutum; settings: scale 0 to 100
wild oat = experiment: Test D preemergence test; format: in vivo, Avena fatua; settings: scale 0 to 100
Summary of the method: as §1

soybean = experiment: Test G preemergence test; format: in vivo, Glycine max; settings: scale 0 to 100
barnyardgrass = experiment: Test B flooded paddy test; format: in vivo, Echinochloa crus-galli; settings: Flood, 250 g ai/ha, 13 to 15 days; scale 0 to 100, 0 no effect, 100 complete control
Source text: as §2

field violet = experiment: Test D preemergence test; format: in vivo, Viola arvensis; settings: scale 0 to 100
Summary of the method: as §1

littleseed canarygrass = experiment: Test D preemergence test; format: in vivo, Phalaris minor; settings: scale 0 to 100
Summary of the method: as §1

corn = experiment: Test G preemergence test; format: in vivo, Zea mays; settings: scale 0 to 100
lambsquarters = experiment: Test G preemergence test; format: in vivo, Chenopodium album; settings: scale 0 to 100
duck salad = experiment: Test B flooded paddy test; format: in vivo, Heteranthera limosa; settings: Flood, 250 g ai/ha, 13 to 15 days; scale 0 to 100, 0 no effect, 100 complete control
Source text: as §2

eastern black nightshade = experiment: Test G preemergence test; format: in vivo, Solanum ptycanthum; settings: scale 0 to 100
large crabgrass = experiment: Test G preemergence test; format: in vivo, Digitaria sanguinalis; settings: scale 0 to 100
yellow nutsedge = experiment: Test G preemergence test; format: in vivo, Cyperus esculentus; settings: scale 0 to 100
umbrella sedge = experiment: Test B flooded paddy test; format: in vivo, Cyperus difformis; settings: Flood, 250 g ai/ha, 13 to 15 days; scale 0 to 100, 0 no effect, 100 complete control
Source text: as §2

sorghum = experiment: Test G preemergence test; format: in vivo, Sorghum vulgare; settings: scale 0 to 100
tall waterhemp = experiment: Test G preemergence test; format: in vivo, Amaranthus tuberculatos; settings: scale 0 to 100
yellow foxtail = experiment: Test G preemergence test; format: in vivo, Pennisetum glaucum; settings: scale 0 to 100
Italian ryegrass = experiment: Test D preemergence test; format: in vivo, Lolium multiflorum; settings: scale 0 to 100
Summary of the method: as §1

goosegrass = experiment: Test G preemergence test; format: in vivo, Eleusine indica; settings: scale 0 to 100
woolly cupgrass = experiment: Test G preemergence test; format: in vivo, Eriochloa villosa; settings: scale 0 to 100

Cc1cc[n+]([O-])c(S(=O)(=O)Cc2c(C(F)(F)F)nn(C)c2OC(F)F)c1 [Compound 2]
Plant response rating, Signalgrass (broadleaf signalgrass; 31 g ai/ha): 0 | Plant response rating, Signalgrass (broadleaf signalgrass; 62 g ai/ha): 50 | Plant response rating, Signalgrass (broadleaf signalgrass; 125 g ai/ha): 65 | Plant response rating, Signalgrass (broadleaf signalgrass; 250 g ai/ha): 65 | Plant response rating, Wheat, Spring (spring wheat; 31 g ai/ha): 0 | Plant response rating, Wheat, Spring (spring wheat; 62 g ai/ha): 0 | Plant response rating, Wheat, Spring (spring wheat; 125 g ai/ha): 0 | Plant response rating, Wheat, Spring (spring wheat; 250 g ai/ha): 15 | Plant response rating, Wheat, Winter (winter wheat; 31 g ai/ha): 0 | Plant response rating, Wheat, Winter (winter wheat; 62 g ai/ha): 0 | Plant response rating, Wheat, Winter (winter wheat; 125 g ai/ha): 15 | Plant response rating, Wheat, Winter (winter wheat; 250 g ai/ha): 25 | Plant response rating, Itchgrass (itchgrass; 31 g ai/ha): 0 | Plant response rating, Itchgrass (itchgrass; 62 g ai/ha): 15 | Plant response rating, Itchgrass (itchgrass; 125 g ai/ha): 30 | Plant response rating, Itchgrass (itchgrass; 250 g ai/ha): 50 | Plant response rating, Bluegrass (annual bluegrass; 31 g ai/ha): 20 | Plant response rating, Bluegrass (annual bluegrass; 62 g ai/ha): 40 | Plant response rating, Bluegrass (annual bluegrass; 125 g ai/ha): 100 | Plant response rating, Bluegrass (annual bluegrass; 250 g ai/ha): 100 | Plant response rating, Rice, Transplanted (rice): 80 | Plant response rating, Blackgrass (blackgrass; 31 g ai/ha): 0 | Plant response rating, Blackgrass (blackgrass; 62 g ai/ha): 70 | Plant response rating, Blackgrass (blackgrass; 125 g ai/ha): 100 | Plant response rating, Blackgrass (blackgrass; 250 g ai/ha): 100 | Plant response rating, Cotton (cotton; 31 g ai/ha): 0 | Plant response rating, Cotton (cotton; 62 g ai/ha): 0 | Plant response rating, Cotton (cotton; 125 g ai/ha): 0 | Plant response rating, Cotton (cotton; 250 g ai/ha): 0 | Plant response rating, Oat, Wild (wild oat; 31 g ai/ha): 0 | Plant response rating, Oat, Wild (wild oat; 62 g ai/ha): 0 | Plant response rating, Oat, Wild (wild oat; 125 g ai/ha): 0 | Plant response rating, Oat, Wild (wild oat; 250 g ai/ha): 10 | Plant response rating, Soybean (soybean; 31 g ai/ha): 0 | Plant response rating, Soybean (soybean; 62 g ai/ha): 0 | Plant response rating, Soybean (soybean; 125 g ai/ha): 0 | Plant response rating, Soybean (soybean; 250 g ai/ha): 0 | Plant response rating, Barnyardgrass (barnyardgrass): 80 | Plant response rating, Field Violet (field violet; 31 g ai/ha): 0 | Plant response rating, Field Violet (field violet; 62 g ai/ha): 0 | Plant response rating, Field Violet (field violet; 125 g ai/ha): 95 | Plant response rating, Field Violet (field violet; 250 g ai/ha): 100 | Plant response rating, Canarygrass (littleseed canarygrass; 31 g ai/ha): 0 | Plant response rating, Canarygrass (littleseed canarygrass; 62 g ai/ha): 60 | Plant response rating, Canarygrass (littleseed canarygrass; 125 g ai/ha): 100 | Plant response rating, Canarygrass (littleseed canarygrass; 250 g ai/ha): 100 | Plant response rating, Corn (corn; 31 g ai/ha): 0 | Plant response rating, Corn (corn; 62 g ai/ha): 0 | Plant response rating, Corn (corn; 125 g ai/ha): 0 | Plant response rating, Corn (corn; 250 g ai/ha): 10 | Plant response rating, Lambsquarters (lambsquarters; 31 g ai/ha): 0 | Plant response rating, Lambsquarters (lambsquarters; 62 g ai/ha): 0 | Plant response rating, Lambsquarters (lambsquarters; 125 g ai/ha): 10 | Plant response rating, Lambsquarters (lambsquarters; 250 g ai/ha): 15 | Plant response rating, Ducksalad (duck salad): 100 | Plant response rating, Nightshade (eastern black nightshade; 31 g ai/ha): 0 | Plant response rating, Nightshade (eastern black nightshade; 62 g ai/ha): 40 | Plant response rating, Nightshade (eastern black nightshade; 125 g ai/ha): 40 | Plant response rating, Nightshade (eastern black nightshade; 250 g ai/ha): 45 | Plant response rating, Crabgrass, Large (large crabgrass; 31 g ai/ha): 0 | Plant response rating, Crabgrass, Large (large crabgrass; 62 g ai/ha): 75 | Plant response rating, Crabgrass, Large (large crabgrass; 125 g ai/ha): 100 | Plant response rating, Crabgrass, Large (large crabgrass; 250 g ai/ha): 100 | Plant response rating, Nutsedge, Yellow (yellow nutsedge; 31 g ai/ha): 0 | Plant response rating, Nutsedge, Yellow (yellow nutsedge; 62 g ai/ha): 0 | Plant response rating, Nutsedge, Yellow (yellow nutsedge; 125 g ai/ha): 35 | Plant response rating, Nutsedge, Yellow (yellow nutsedge; 250 g ai/ha): 75 | Plant response rating, Umbrella Sedge (umbrella sedge): 100 | Plant response rating, Sorghum (sorghum; 31 g ai/ha): 0 | Plant response rating, Sorghum (sorghum; 62 g ai/ha): 0 | Plant response rating, Sorghum (sorghum; 125 g ai/ha): 60 | Plant response rating, Sorghum (sorghum; 250 g ai/ha): 100 | Plant response rating, Waterhemp (tall waterhemp; 31 g ai/ha): 20 | Plant response rating, Waterhemp (tall waterhemp; 62 g ai/ha): 100 | Plant response rating, Waterhemp (tall waterhemp; 125 g ai/ha): 100 | Plant response rating, Waterhemp (tall waterhemp; 250 g ai/ha): 100 | Plant response rating, Foxtail, Yellow (yellow foxtail; 31 g ai/ha): 0 | Plant response rating, Foxtail, Yellow (yellow foxtail; 62 g ai/ha): 20 | Plant response rating, Foxtail, Yellow (yellow foxtail; 125 g ai/ha): 100 | Plant response rating, Foxtail, Yellow (yellow foxtail; 250 g ai/ha): 100 | Plant response rating, Ryegrass, Italian (Italian ryegrass; 31 g ai/ha): 0 | Plant response rating, Ryegrass, Italian (Italian ryegrass; 62 g ai/ha): 0 | Plant response rating, Ryegrass, Italian (Italian ryegrass; 125 g ai/ha): 30 | Plant response rating, Ryegrass, Italian (Italian ryegrass; 250 g ai/ha): 50 | Plant response rating, Goosegrass (goosegrass; 31 g ai/ha): 95 | Plant response rating, Goosegrass (goosegrass; 62 g ai/ha): 100 | Plant response rating, Goosegrass (goosegrass; 125 g ai/ha): 100 | Plant response rating, Goosegrass (goosegrass; 250 g ai/ha): 100 | Plant response rating, Cupgrass, Woolly (woolly cupgrass; 31 g ai/ha): 0 | Plant response rating, Cupgrass, Woolly (woolly cupgrass; 62 g ai/ha): 0 | Plant response rating, Cupgrass, Woolly (woolly cupgrass; 125 g ai/ha): 95 | Plant response rating, Cupgrass, Woolly (woolly cupgrass; 250 g ai/ha): 95
